Laboratory results reported in patent publication US10130830B2, “Preservative systems comprising cationic surfactants” (Laboratorios Miret, S.A., priority 2005, dated 2018).

What was measured:
Moulds = test: Preservative action in cosmetic products (Antimicrobial Effectiveness Testing USP 24th Edition), moulds; type: cell-based, Aspergillus niger
Description: (§1) (1) Determination of Preservative Action in Cosmetic Products. […] This assay consists of the contamination of the protecting formulations with an inoculum mixture of 10^8 cfu/ml concentration, for each of the micro-organisms, and the determination of the number of viable cells in time. This inoculum mixture is composed of the following microorganisms: [table] The cosmetic composition to be analysed is divided into sterile containers with 50 g of product for each flask. Each container is inoculated with 0.5 ml of inoculum (10^8 cfu/ml). The target concentration is 10^6 cfu/ml, approximately. All the containers are kept at a temperature between 20-25° C. and are protected from light. The level of the microbial contamination is checked at 0 hours, 7 days, 14 days and 28 days. The number of colonies is evaluated by dilution in buffer peptone with the appropriate neutraliser agent of the preservative. The culture media used for counting the microorganisms are: […] (2) Determination of Preservative Action in Chicken Breast. Process of Preparation • 1. Fresh chicken breast was diced to pieces • 2. Brine (8.70% sodium chloride and 4.35% tripolyphosphate in water) was added to the fresh chicken in an amount of 11.5 g brine per 88.5 g meat in the control preparation and 11.5 g brine and 88.4 g meat in the preparations treated with preservative. • 3. Brine and meat were mixed during 15 minutes, in the preparations treated with preservative the preservative was added after 14 minutes in an amount of 0.2 g/kg. • 4. Vacuum refrigerate tumbling was made during 30 minutes. • 5. Samples were vacuum-packed in sterile bags and they were cooked at 85° C. for 30 minutes. • 6. The cooked chicken was refrigerated at 4° C. • 7. The cooked chicken was diced in irregular shapes. • 8. Then, the nuggets were stored at 10° C. in sterile vacuum-packed bags. Analysis

aerobic total count [1] = test: Preservative action in bratwurst sausage, aerobic total count; type: cell-based; details: Example 11, bratwurst sausage, LAE 0.2 g/kg
Procedure: (3) Determination of Preservative Action in Bratwurst Sausage.
The ingredients for all samples were : minced pork back, underbelly, spices, salt and additives (milk protein, diphosphate, antioxidant (E-300) and flavour enhance (E-621)).
1. On the cutter the minced pork back meat was ground and the ingredients were added in this order: the additives (except the preservative system), the underbelly, the spices and the preservative system (such as the cationic surfactant alone or in combination with other products). Ice was also added for controlling the temperature (maximum 5° C.) of the meat. The mixing time was 12 minutes.
2. The mass was vacuum mixed (92%) for 1 minute.
3. The mixture was stuffed into natural casings. The casings were previously soaked in a salted water solution for 30 minutes.
4. The bratwurst sausages were put in a cooking trolley. Cooking took place in a oven at 80° C. for 1 hour.
5. After cooking, the bratwurst sausages were sprayed with cool water for 5 minutes and put in a cold-storage room (0-5° C., 24 hours).
6. The next day, bratwurst sausages were packed (each packed contained five sausages) and pasteurised at 80° C. for 30 minutes and then. After, they were soaked in cool water for 30 minutes.
7. Finally, the bratwurst sausages were labelled and stored at 5° C. for 90 days.
Samples were analysed (aerobic total count) for up to 90 days. Aerobic total count was analysed by stomaching 25 g of sausage in 225 g of buffered peptone water. Dilutions were made in buffered peptone water. Tryptone Soya Agar was harvested with each dilution and incubated at 35° C. for 48 hours.
Average values in log cfu/g of three samples per treatment and day of analysis were calculated.

Aerobes = test: Preservative action in cosmetic products (Antimicrobial Effectiveness Testing USP 24th Edition), aerobes; type: cell-based
Description: as §1

[2] = system: inoculated microorganisms; test: Preservative action in cosmetic products, overall outcome against the inoculum mixture; type: cell-based; details: Example 17, oil in water emulsion with an ionic emulsifier, 0.20 g of LAE/kg
Description: as §1, with “Brine and meat were mixed during 15 minutes, in the preparations treated with preservative the preservative was added after 14 minutes in an amount of 0.2 g/kg. • 4. Vacuum refrigerate tumbling was made during 30 minutes. • 5. Samples were vacuum-packed in sterile bags and they were cooked at 85° C. for 30 minutes. • 6. The cooked chicken was refrigerated at 4° C. • 7. The cooked chicken was diced in irregular shapes. • 8. Then, the nuggets were stored at 10° C. in sterile vacuum-packed bags. Analysis” left out

aerobic total count [3] = test: Preservative action in soaked chickpeas, aerobic total count; type: cell-based; details: Example 13, soaked chickpeas, LAE 0.2 g/kg in soaking water, mean of triplicate
Procedure: (4) Determination of Preservative Action in Soaked Chick-peas.
Chickpeas are the principal ingredients in a lot of ready-to-eat meals. Before cooking them, chickpeas have to be soaked in water at room temperature for 24 hours. During this period, fermentation processes may occur and therefore, chickpeas would not be suitable for eating. The soaking process cannot be made at refrigeration temperatures, because the structure of the chickpeas could be damaged.
• 1. Chickpeas were soaked in water for 24 hours at 30° C. and 50% HR (in treated samples preservative was added at this point); and • 2. after 24 hours the chickpeas were strained. Analysis • Samples were analysed (aerobic total count and concentration of the cationic surfactant) by triplicate for 24 hours. • Aerobic total count was analysed by stomaching 25 g of chickpeas in 225 g of buffered peptone water. Dilutions were made in buffered peptone water. Tryptone Soya Agar was harvested with each dilution and incubated at 35° C. for 48 hours. • Average values in log cfu/g of three samples per treatment and day of analysis were calculated. • LAE was analysed by HPLC using an internally validated method.

Yeast = test: Preservative action in cosmetic products (Antimicrobial Effectiveness Testing USP 24th Edition), yeast; type: cell-based, Candida albicans
Description: as §1

[4] = Example 10, oil in water emulsion with non-ionic surfactant, 0.2 g/kg, 0 days
[5] = Example 10, oil in water emulsion with non-ionic surfactant, 0.2 g/kg, 7 days
[6] = Example 10, oil in water emulsion with non-ionic surfactant, 0.2 g/kg, 14 days
[7] = Example 12, bath gel, LAE 0.2 g/kg, 0 days
[8] = Example 12, bath gel, LAE 0.2 g/kg, 7 days
[9] = Example 12, bath gel, LAE 0.2 g/kg, 14 days
[10] = Example 15, bath gel, LAE 0.2 g/kg, 0 days
[11] = Example 15, bath gel, LAE 0.2 g/kg, 7 days
[12] = Example 15, bath gel, LAE 0.2 g/kg, 14 days
[13] = Example 17, oil in water emulsion with an ionic emulsifier, 0.20 g of LAE/kg, 0 days
[14] = Example 17, oil in water emulsion with an ionic emulsifier, 0.20 g of LAE/kg, 7 days
[15] = Example 17, oil in water emulsion with an ionic emulsifier, 0.20 g of LAE/kg, 14 days
[16] = Example 19, bath gel, 0.2 g of LAE/kg, 0 days
[17] = Example 19, bath gel, 0.2 g of LAE/kg, 7 days
[18] = Example 19, bath gel, 0.2 g of LAE/kg, 14 days

## CCCCCCCCCCCC(=O)N[C@@H](CCCN=C(N)N)C(=O)OCC.Cl [LAE, ethyl ester of the lauramide of the arginine monohydrochloride]
Moulds; [4]
  Moulds count: 4.3 log cfu/g
Moulds; [5]
  Moulds count: <2.0 log cfu/g
Moulds; [6]
  Moulds count: <2.0 log cfu/g
Moulds; [7]
  Moulds count: 4.5 log cfu/g
Moulds; [8]
  Moulds count: 2.3 log cfu/g
Moulds; [9]
  Moulds count: <2.0 log cfu/g
Moulds; [10]
  Moulds count: 4.1 log cfu/g
Moulds; [11]
  Moulds count: <2.0 log cfu/g
Moulds; [12]
  Moulds count: <2.0 log cfu/g
Moulds; [13]
  Moulds count: 4.1 log cfu/g
Moulds; [14]
  Moulds count: 2.9 log cfu/g
Moulds; [15]
  Moulds count: <2.0 log cfu/g
Moulds; [16]
  Moulds count: 4.1 log cfu/g
Moulds; [17]
  Moulds count: 2.0 log cfu/g
Moulds; [18]
  Moulds count: <2.0 log cfu/g
Aerobic total count [1]; day 0, mean of three samples
  aerobic total count, mean: 2.0 log cfu/g
Aerobic total count [1]; day 15, mean of three samples
  aerobic total count, mean: 2.0 log cfu/g
Aerobic total count [1]; day 30, mean of three samples
  aerobic total count, mean: 2.4 log cfu/g
Aerobic total count [1]; day 45, mean of three samples
  aerobic total count, mean: 2.8 log cfu/g
Aerobic total count [1]; day 60, mean of three samples
  aerobic total count, mean: 3.4 log cfu/g
Aerobic total count [1]; day 90, mean of three samples
  aerobic total count, mean: 4.2 log cfu/g
Aerobes; [4]
  Aerobes count: 6.2 log cfu/g
Aerobes; [5]
  Aerobes count: 3.5 log cfu/g
Aerobes; [6]
  Aerobes count: 3.0 log cfu/g
Aerobes; [7]
  Aerobes count: 6.2 log cfu/g
Aerobes; [8]
  Aerobes count: 4.2 log cfu/g
Aerobes; [9]
  Aerobes count: 3.0 log cfu/g
Aerobes; [10]
  Aerobes count: 6.1 log cfu/g
Aerobes; [11]
  Aerobes count: 3.0 log cfu/g
Aerobes; [12]
  Aerobes count: 2.6 log cfu/g
Aerobes; [13]
  Aerobes count: 6.1 log cfu/g
Aerobes; [14]
  Aerobes count: 4.0 log cfu/g
Aerobes; [15]
  Aerobes count: 2.9 log cfu/g
Aerobes; [16]
  Aerobes count: 6.0 log cfu/g
Aerobes; [17]
  Aerobes count: 3.3 log cfu/g
Aerobes; [18]
  Aerobes count: 2.9 log cfu/g
[2]
  preservation outcome: effectively preserved
Aerobic total count [3]; 0 hours
  aerobic total count, mean: 2.0 log cfu/g
Aerobic total count [3]; 4 hours
  aerobic total count, mean: 2.0 log cfu/g
Aerobic total count [3]; 8 hours
  aerobic total count, mean: 2.5 log cfu/g
Aerobic total count [3]; 16 hours
  aerobic total count, mean: 3.8 log cfu/g
Yeast; [4]
  Yeast count: 5.6 log cfu/g
Yeast; [5]
  Yeast count: 3.4 log cfu/g
Yeast; [6]
  Yeast count: 2.6 log cfu/g
Yeast; [7]
  Yeast count: 4.3 log cfu/g
Yeast; [8]
  Yeast count: 2.8 log cfu/g
Yeast; [9]
  Yeast count: <2.0 log cfu/g
Yeast; [10]
  Yeast count: 4.3 log cfu/g
Yeast; [11]
  Yeast count: 3.3 log cfu/g
Yeast; [12]
  Yeast count: 2.6 log cfu/g
Yeast; [13]
  Yeast count: 5.3 log cfu/g
Yeast; [14]
  Yeast count: 3.8 log cfu/g
Yeast; [15]
  Yeast count: 2.5 log cfu/g
Yeast; [16]
  Yeast count: 4.5 log cfu/g
Yeast; [17]
  Yeast count: 3.5 log cfu/g
Yeast; [18]
  Yeast count: 2.3 log cfu/g
